Measurements: PMC5688144, “Assay interference and off-target liabilities of reported histone acetyltransferase inhibitors” (Nature Communications, 2017)

Legend:
[1] = biological target: T1, AmpC β-lactamase (Escherichia coli, UniProt P00811); experiment: biochemical; design: species or system E. coli; settings: 10 μM compound; ± 0.01% Triton X-100
T1 construct: Recombinant E. coli AmpC (amino acids 20–377); purchased MyBioSource.com
Procedure: Selected compounds were assessed for aggregation using a modified AmpC β-lactamase counter-screen[24],[32],[64]. Recombinant E. coli AmpC (amino acids 20–377) was obtained from MyBioSource.com. Testing was performed in ALARM NMR buffer (25 mM sodium phosphate, pH 7.0) in flat-bottom UV-transparent 96-well microplates in 150 μL reaction volumes. Compounds were tested in triplicate at 10 μM final concentrations in either the presence or absence of freshly-prepared 0.01% Triton X-100 (v/v). Final concentration of DMSO was 2.0% (v/v). Compounds were incubated with ~5 nM AmpC in 147 μL reaction buffer for 5 min at RT, followed by the addition of 3 μL of nitrocefin substrate (100 μM final concentration). Reaction solutions were gently mixed by pipetting up and down three times using a multichannel pipette. […] Percent activity was normalized to DMSO-only controls. Fluconazole and lidocaine were included as negative aggregation control compounds. Rottlerin was included as a positive aggregation control compound. Aggregators were defined as compounds with significant detergent-dependent changes in AmpC activity (t-test, adjusted P-value <0.05; mean differences greater than 30%). Activators were defined as compounds that increased AmpC enzymatic activity.

[2] = biological target: T2, human La antigen (Homo sapiens, UniProt P05455, T302N); experiment: ALARM NMR; format: binding; settings: 400 μM compound; for ALARM NMR, (-) DTT: 0 mM DTT; for ALARM NMR, (+) DTT: DTT present; for ALARM NMR interpretation: with and without DTT
T2 construct: amino acids 100–324 of the human La antigen (plus T302N mutation); 6xHis (N); 6xHis (C); host or cells: Escherichia coli Rosetta cells
T2 sequence (P05455 100-324 T302N): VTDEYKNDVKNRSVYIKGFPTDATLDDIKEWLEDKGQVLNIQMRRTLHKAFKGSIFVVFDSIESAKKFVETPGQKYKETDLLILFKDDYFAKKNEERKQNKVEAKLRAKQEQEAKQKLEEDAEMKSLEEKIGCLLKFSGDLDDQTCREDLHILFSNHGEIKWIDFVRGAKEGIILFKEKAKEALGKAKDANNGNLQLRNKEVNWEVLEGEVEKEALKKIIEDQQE
Excerpt: The gene encoding amino acids 100–324 of the human La antigen (plus T302N mutation) was cloned into pET28b + vector (Novagen) with both an N- and C-terminal 6xHis tag (addgene.org, plasmid ID 90209). The sequence identity of the ALARM NMR plasmid construct was verified by Sanger sequencing of the transgene region and next-generation sequencing of the whole plasmid.
Plasmid was transformed into Escherichia coli Rosetta cells (Novagen) and cultured in M9 minimal media. The La antigen was labeled by adding ^13C-labeled amino acid precursors ([3-^13C]-α-ketobutyrate and [3,3′-^13C]-α-ketoisovalerate sodium salts; Cambridge Isotope Laboratories; 250 mg L^−1 final concentrations) to culture medium 30 min before induction with IPTG (1 mM final concentration). Bacteria were collected after incubation at 25 °C for 8 h and washed with ice-cold phosphate-buffered saline (PBS). Washed cells were lysed by French press in ice-cold lysis buffer (50 mM Tris, pH 7.6, 300 mM NaCl, 10% glycerol (v/v), 5 mM β-mercaptoethanol (BME), 5 mM imidazole, 2 mM MgCl2, benzonase, and protease inhibitor cocktail), followed by an additional brief sonication step (3 × 15 s pulse sequence) on ice. This lysed solution was centrifuged (30,000×g for 30 min, two cycles) to remove cellular debris, then loaded onto a pre-washed Ni-NTA bead column (Qiagen) kept at 4 °C and washed with buffer (50 mM Tris, pH 7.6, 300 mM NaCl, 10% glycerol (v/v), 5 mM BME, 5 mM imidazole). The La antigen was eluted with an elution buffer (50 mM Tris, pH 7.6, 300 mM NaCl, 10% glycerol (v/v), 5 mM BME, imidazole gradient ranging from 5 mM to 0.5 M). […] Aliquots were flash-frozen in liquid N2 and stored at −80 °C until further use. Before use, aliquots of ~150 μM protein were incubated in the presence of 20 mM DTT at 37 °C for 1 h, then dialyzed (25 mM sodium phosphate buffer, pH 7.0 (no DTT)) in 16 h cycles at 4 °C with constant nitrogen bubbling and with gentle stirring, for three total buffer cycles.
For standard testing conditions, the [^1H-^13C]-HMQC spectra were acquired in 25 mM sodium phosphate buffer, pH 7.0, 10% D2O (v/v; CIL) ± 400 μM test compounds delivered from the aforementioned stock solutions, and ± 20 mM non-deuterated DTT. Final concentration of DMSO was 4.0% (v/v). Reaction solutions were mixed, then centrifuged for 5 min (1000×g) in non-binding 384-well microplates at RT, then incubated at 37 °C for 1 h and then 30 °C for 15 h before obtaining spectra. Samples were checked for evidence of gross precipitation. Data were recorded at 298 K on a Bruker UltraShield 700 MHz NMR spectrometer equipped with a Bruker 1.7 mm TCI Cryoprobe and Bruker SampleJet autosampler. Samples were tested at 50 μM protein concentrations using 16 scans, 2048 complex points in F2, and 80 points in F1 using standard protein [^1H-^13C]-HMQC and water suppression pulse sequences.
Data were analyzed in TopSpin™ 3.5 (Bruker). Reactions were normalized to equivalent DMSO controls. Non-reactive compounds were identified by the absence of chemical shifts or changes in peak intensities (^13C-methyl) ± 20 mM DTT.

[3] = biological target: T3, PCAF (Homo sapiens, UniProt Q92831); settings: original report; 27 (Supplementary References); cited from earlier work
T3 construct: Reaction Biology Corporation (assays run by this contract lab)

[4] = design: method as in not given; settings: noted in discussion; ref not given; cited from earlier work
[5] = system: p300/CBP; settings: original report; 27 (Supplementary References); cited from earlier work
[6] = system: MOF; design: method as in ref 19, 26 (Supplementary References); settings: original report; 26 (Supplementary References); cited from earlier work
[7] = biological target: MOZ; design: method as in ref 26 (Supplementary References); settings: original report; ref 26 (Supplementary References); cited from earlier work
[8] = Absorbance spectra; format: physicochemical; settings: 25 mM sodium phosphate, pH 7.0
Procedure: Selected test compounds were assessed for absorption between 300 and 750 nm. Most compound absorption spectra were obtained at 100, 50, and 10 μM final compound concentrations in ALARM NMR buffer (25 mM sodium phosphate, pH 7.0). Final concentration of DMSO was constant at 2.0% (v/v). Compounds were allowed to incubate at RT in buffer for 10 min in UV-transparent polystyrene 384-well plates. Absorbance spectra were then obtained on a SpectraMax M3 or BMG Labtech CLARIOstar microplate reader at 25 °C. Significant absorbance was defined as molar absorptivity constants greater than 2000 M^−1 cm^−1 at wavelengths greater than 300 nm.

[9] = UPLC-MS gross compound stability in assay buffer; settings: 25 mM sodium phosphate, pH 7.0, 30 °C, no GSH or CoA
Procedure: Select compounds were incubated up to 24 h for additional stability analyses. Chromatograms and mass spectra were qualitatively analyzed for the formation of new peaks and/or loss of parent peaks.

[10] = biological target: MOZ; settings: original report; ref 26 (Supplementary References); cited from earlier work

SMILES: CC(=O)N[C@H](CCCCNC(=O)CSCCNC(=O)CCNC(=O)C(O)C(C)(C)COP(=O)(O)OP(=O)(O)OC[C@H]1O[C@@H](n2cnc3c(N)ncnc32)[C@H](O)[C@@H]1OP(=O)(O)O)C(N)=O (stereo partly shown) [Compound 23, Lys-CoA]
- AmpC aggregation counter-screen [1]: Detergent-insensitive
- ALARM NMR, (-) DTT [2]: Negative
- ALARM NMR, (+) DTT [2]: Negative
- ALARM NMR readout ([2]; overall readout): negative
- ALARM NMR interpretation [2]: Inert as tested
- IC50 [3]: 200 µM
- cell permeability [4]: cell-impermeable
- IC50 [5]: 0.5 µM

SMILES: N#Cc1c2ccc(N)cc2nc2cc(N)ccc12 [Compound 22, CTx-1]
- IC50 [6]: > 100 µM
- AmpC aggregation counter-screen [1]: Detergent-insensitive
- ALARM NMR, (-) DTT [2]: Negative
- ALARM NMR, (+) DTT [2]: Negative
- ALARM NMR interpretation [2]: Inert as tested
- Kd [7]: 380 nM
- Absorption max (nm) [8]: Nominal
- Absorbance counter-screen ([8]; 300-750 nm): Negative
- UPLC-MS buffer stability counter-screen [9]: Grossly stable
- IC50 [3]: > 100 µM
- Ki [10]: 2400 nM
